One may read the Ki as the dissociation constant of the complex between target and ligand, obtained from inhibition or displacement.

We go through 22 molecules from US20120245161A1 (SANOFI, priority 2009, published 2012).

Where a name gives a salt, the structure may show the parent alone. Read-outs that look alike come from different tables or passages of the source.

In the test the target is T1, recombinant human beta tryptase (Homo sapiens, UniProt P20231).
T1 construct: made in house; host or cells: yeast cells
T1 sequence (P20231 31-275): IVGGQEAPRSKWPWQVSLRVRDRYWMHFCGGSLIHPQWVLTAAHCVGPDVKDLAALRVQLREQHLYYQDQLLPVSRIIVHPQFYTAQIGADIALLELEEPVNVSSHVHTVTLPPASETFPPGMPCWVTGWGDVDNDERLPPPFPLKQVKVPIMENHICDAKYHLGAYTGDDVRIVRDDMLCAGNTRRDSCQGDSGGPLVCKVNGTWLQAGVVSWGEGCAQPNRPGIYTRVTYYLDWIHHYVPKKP
The experiment in a line: beta-Tryptase inhibition, chromogenic enzyme assay (substrate S2366, read at 405 nm). The format is biochemical. As to conditions: Ki calculated from IC50: Ki=IC50/(1+[Substrate]/Km), 0.5 mM substrate, room temperature. Put shortly: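 Recombinant human beta tryptase (yeast-expressed; native lung enzyme also used), 50 ng/mL final, with 0.5 mM (2×Km) chromogenic substrate S2366; 30 min in the dark, room temperature, read at 405 nm. Compounds at 0.01-10 μM in duplicate for IC50; Ki=IC50/(1+[S]/Km).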

Regarding `COCCn1cc(C(=O)N2CCC(c3cc(CN)ccc3F)CC2)c2c(OC3CC3)cccc21` [Example 58, [4-(5-Aminomethyl-2-fluoro-phenyl)-piperidin-1-yl]-[4-cyclopropoxy-1-(2-methoxy-ethyl)-1H-indol-3-yl]-methanone hydrochloride], the Ki (Tryptase Ki (nM)) is 108 nM.
Turning to `NCc1ccc(F)c(C2CCN(C(=O)c3cn(CCOC(F)(F)F)c4cccc(F)c34)CC2)c1` [Example 90, [4-(5-Aminomethyl-2-fluoro-phenyl)-piperidin-1-yl]-[4-fluoro-(2-trifluoromethoxy-ethyl)-1H-indol-3-yl]-methanone hydrochloride], where the note is “Tryptase Ki (nM)”, the Ki is 396 nM.
The same measure, in the same setting: the result for `Cc1cccc2c(C(=O)N3CCC(c4cc(CN)ccc4F)CC3)cn(CCCc3ccccc3)c12` [Example 4, [4-(5-Aminomethyl-2-fluoro-phenyl)-piperidin-1-yl]-[7-methyl-1-(3-phenyl-propyl)-1H-indol-3-yl]-methanone hydrochloride] reads 1300 nM.
In the case of `Cc1cccc2c(C(=O)N3CCC(c4cc(CN)ccc4F)CC3)cn(CCCN3CCOCC3)c12` [Example 7, [4-(5-Aminomethyl-2-fluoro-phenyl)-piperidin-1-yl]-[7-methyl-1-(3-morpholin-4-yl-propyl)-1H-indol-3-yl]-methanone hydrochloride], the Ki (Tryptase Ki (nM)) was 139 nM.
For `COCCn1cc(C(=O)N2CCC(c3cc(CN)ccc3F)CC2)c2c(NC(=O)N(C)C)cccc21` [Example 100, 3-[3-[4-(5-Aminomethyl-2-fluoro-phenyl)-piperidine-1-carbonyl]-1-(2-methoxy-ethyl)-1H-indol-4-yl]-1,1-dimethyl-urea hydrorchloride], under “Tryptase Ki (nM)”, the Ki was 17 nM.
Regarding `COCCn1cc(C(=O)N2CCC(c3cc(CN)ccc3F)CC2)c2c(N)cccc21` [Example 75, [4-(5-Aminomethyl-2-fluoro-phenyl)-piperidin-1-yl]-[4-amino-1-(2-methoxy-ethyl)-1H-indol-3-yl]-methanone hydrochloride], under “Tryptase Ki (nM)”, the Ki was 59 nM.
The same measure, in the same setting: the result for `Cc1cccc2c(C(=O)N3CCC(c4cc(CN)ccc4F)CC3)cn(CCCc3cccnc3)c12` [Example 10, [4-(5-Aminomethyl-2-fluoro-phenyl)-piperidin-1-yl]-[7-methyl-1-(3-pyridin-3-yl-propyl)-1H-indol-3-yl]-methanone dihydrochloride] reads 175 nM.
In the case of `CNc1cccc2c1c(C(=O)N1CCC(c3cc(CN)ccc3F)CC1)cn2CCOC` [Example 76, [4-(5-Aminomethyl-2-fluoro-phenyl)-piperidin-1-yl]-[4-methylamino-1-(2-methoxy-ethyl)-1H-indol-3-yl]-methanone hydrochloride], the Ki (Tryptase Ki (nM)) is 211 nM.
In the case of `NCc1ccc(F)c(C2CCN(C(=O)c3cn(CCN4CCCCC4)c4ccccc34)CC2)c1` [Example 41, [4-(5-Aminomethyl-2-fluoro-phenyl)-piperidin-1-yl]-[1-(2-piperidin-1-yl-ethyl)-1H-indol-3-yl]-methanone dihydrochloride], for the setting “read-out: Tryptase Ki”, the Ki is 62 nM.
For the molecule `NCc1ccc(F)c(C2CCN(C(=O)c3cn(CC(F)(F)c4ccccc4)c4ccccc34)CC2)c1` [Example 45, [4-(5-Aminomethyl-2-fluoro-phenyl)-piperidin-1-yl]-[1-(2,2-difluoro-2-phenyl-ethyl)-1H-indol-3-yl]-methanone hydrochloride], the Ki (Tryptase Ki (nM)) is 753 nM.
Still for that read-out and setting: next, `Cc1cccc2c(C(=O)N3CCC(c4cc(CN)ccc4F)CC3)cn(CCCO)c12` [Example 17, hydrochloride]: 37 nM.
For `COCCn1cc(C(=O)N2CCC(c3cc(CN)ccc3F)CC2)c2c(C(F)(F)F)cccc21` [Example 53, [4-(5-Aminomethyl-2-fluoro-phenyl)-piperidin-1-yl]-[1-(2-methoxy-ethyl)-4-trifluoromethyl-1H-indol-3-yl]-methanone hydrochloride], the Ki (Tryptase Ki (nM)) was 289 nM.
Take `COCCn1cc(C(=O)N2CCC(c3cc(CN)ccc3F)CC2)c2c(-c3cncc(F)c3)cccc21` [Example 84, [4-(5-Aminomethyl-2-fluoro-phenyl)-piperidin-1-yl]-[4-(5-fluoro-pyridin-3-yl)-1-(2-methoxy-ethyl)-1H-indol-3-yl]-methanone dihydrochloride]: for the setting “read-out: Tryptase Ki”, the Ki was 22 nM.
For `NCc1ccc(F)c(C2CCN(C(=O)c3cn(CCCF)c4c(OC(F)(F)F)cccc34)CC2)c1` [Example 34, [4-(5-Aminomethyl-2-fluoro-phenyl)-piperidin-1-yl]-[1-(3-fluoro-propyl)-7-trifluoromethoxy-1H-indol-3-yl]-methanone hydrochloride], the Ki (Tryptase Ki (nM)) was 1010 nM.
Still for that read-out and setting: next, `COCCn1cc(C(=O)N2CCC(c3cc(CN)ccc3F)CC2)c2c(F)cccc21` [Example 51, [4-(5-Aminomethyl-2-fluoro-phenyl)-piperidin-1-yl]-[4-fluoro-1-(2-methoxy-ethyl)-1H-indol-3-yl]-methanone hydrochloride]: 54 nM.
Same read-out and setting: the result for `COCCn1cc(C(=O)N2CCC(c3cccc(CN)c3F)CC2)c2cccc(C)c21` [Example 117, [4-(3-Aminomethyl-2-fluoro-phenyl)-piperidin-1-yl]-[1-(2-methoxy-ethyl)-7-methyl-1H-indol-3-yl]-methanone hydrochloride] reads 756 nM; that for `COCCn1cc(C(=O)N2CCC(c3cc(CN)ccc3F)CC2)c2c(NC(=O)c3cnco3)cccc21` [Example 124, Oxazole-5-carboxylic acid [3-[4-(5-aminomethyl-2-fluoro-phenyl)-piperidine-1-carbonyl]-1-(2-methoxy-ethyl)-1H-indol-4-yl]-amide hydrochloride], 8 nM; that for `COCCn1cc(C(=O)N2CCC(c3cc(CN)ccc3F)CC2)c2c(NC(=O)c3ccncc3)cccc21` [Example 101, N-[3-[4-(5-Aminomethyl-2-fluoro-phenyl)-piperidine-1-carbonyl]-1-(2-methoxy-ethyl)-1H-indol-4-yl]-isonicotinamide hydrochloride], 11 nM.
Still for that read-out and setting: next, `Cc1cccc2c(C(=O)N3CCC(c4cc(CN)ccc4F)CC3)cn(CCN3CCOCC3)c12` [Example 3, [4-(5-Aminomethyl-2-fluoro-phenyl)-piperidin-1-yl]-[7-methyl-1-(2-morpholin-4-yl-ethyl)-1H-indol-3-yl]-methanone hydrochloride]: 109 nM.
For `CCCn1cc(-c2cccc3c2c(C(=O)N2CCC(c4cc(CN)ccc4F)CC2)cn3CCOC(F)(F)F)cn1` [Example 93, [4-(5-Aminomethyl-2-fluoro-phenyl)-piperidin-1-yl]-[4-(1-propyl-1H-pyrazol-4-yl)-1-(2-trifluoromethoxy-ethyl)-1H-indol-3-yl]-methanone dihydrochloride], the Ki (read-out: Tryptase Ki) was 160 nM.
`COCCn1cc(C(=O)N2CCC(c3cc(CN)ccc3F)CC2)c2cccc(C(F)F)c21` [Example 12, [4-(5-Aminomethyl-2-fluoro-phenyl)-piperidin-1-yl]-[7-difluoromethyl-1-(2-methoxy-ethyl)-1H-indol-3-yl]-methanone hydrochloride]: under “Tryptase Ki (nM)”, the inhibitory constant (Ki) was 26 nM.
In the case of `COCCn1cc(C(=O)N2CCC(c3cc(CN)ccc3F)CC2)c2c(Cl)cccc21` [Example 42, [4-(5-Aminomethyl-2-fluoro-phenyl)-piperidin-1-yl]-[4-chloro-1-(2-methoxy-ethyl)-1H-indol-3-yl]-methanone], the Ki (read-out: Tryptase Ki) is 123 nM.
